{"source": "patent US20240423207A1", "about": "“PICOLINAMIDE COMPOUNDS WITH FUNGICIDAL ACTIVITY” (CORTEVA AGRISCIENCE LLC, priority 2014, published 2024)", "assay_type_in_all_cases": "in vivo", "key": {"[1]": {"test_system": "Glomerella lagenarium; Anamorph: Colletotrichum lagenarium", "assay": "Cucumber Anthracnose (COLLLA) fungicidal activity on cucumber seedlings", "conditions": "Colletotrichum orbiculare, 24 h, 1 Day Protectant, read-out: COLLLA 1 DP disease control", "protocol": "Technical grades of materials were dissolved in acetone, which were then mixed with nine volumes of water (H2O) containing 110 ppm Triton X-100. The fungicide solutions were applied onto wheat seedlings using an automated booth sprayer to run-off. All sprayed plants were allowed to air dry prior to further handling. All fungicides were evaluated using the aforementioned method for their activity vs. all target diseases, unless stated otherwise. Wheat leaf blotch and brown rust activity were also evaluated using track spray applications, in which case the fungicides were formulated as EC formulations, containing 0.1% Trycol 5941 in the spray solutions. Wheat plants (variety Yuma) were grown from seed in a greenhouse in 50% mineral soil/50% soil-less Metro mix until the first leaf was fully emerged, with 7-10 seedlings per pot. These plants were inoculated with an aqueous spore suspension of Septoria tritici either prior to or after fungicide treatments. After inoculation the plants were kept in 100% relative humidity (one day in a dark dew chamber followed by two to three days in a lighted dew chamber at 20° C.) to permit spores to germinate and infect the leaf. The plants were then transferred to a greenhouse set at 20° C. for disease to develop. When disease symptoms were fully expressed on the 1st leaves of untreated plants, infection levels were assessed on a scale of 0 to 100 percent disease severity. Percent disease control was calculated using the ratio of disease severity on treated plants relative to untreated plants. Example J: Evaluation of Fungicidal Activity: Cucumber Anthracnose (Glomerella lagenarium; Anamorph: Colletotrichum lagenarium; Bayer code COLLLA) Cucumber seedlings (variety Bush Pickle) were propagated in soil-less Metro mix, with each pot having one plant, and used in the test when 12 to 14 days old. Test plants were inoculated with an aqueous spore suspension of Colletotrichum lagenarium 24 hr after fungicide treatments. After inoculation the plants were kept in a dew room at 22° C. with 100% relative humidity for 48 hr to permit spores to germinate and infect the leaf. The plants were then transferred to a growth room set at 22° C. for disease to develop. Fungicide formulation, application and disease assessment on the sprayed leaves followed the procedures as described in the Example A."}, "Venturia inaequalis": {"test_system": "Venturia inaequalis", "assay": "Apple Scab (VENTIN) fungicidal activity on apple seedlings", "conditions": "24 h, 1 Day Protectant, read-out: VENTIN 1 DP disease control", "protocol": "Technical grades of materials were dissolved in acetone, which were then mixed with nine volumes of water (H2O) containing 110 ppm Triton X-100. The fungicide solutions were applied onto wheat seedlings using an automated booth sprayer to run-off. All sprayed plants were allowed to air dry prior to further handling. All fungicides were evaluated using the aforementioned method for their activity vs. all target diseases, unless stated otherwise. Wheat leaf blotch and brown rust activity were also evaluated using track spray applications, in which case the fungicides were formulated as EC formulations, containing 0.1% Trycol 5941 in the spray solutions. Wheat plants (variety Yuma) were grown from seed in a greenhouse in 50% mineral soil/50% soil-less Metro mix until the first leaf was fully emerged, with 7-10 seedlings per pot. These plants were inoculated with an aqueous spore suspension of Septoria tritici either prior to or after fungicide treatments. After inoculation the plants were kept in 100% relative humidity (one day in a dark dew chamber followed by two to three days in a lighted dew chamber at 20° C.) to permit spores to germinate and infect the leaf. The plants were then transferred to a greenhouse set at 20° C. for disease to develop. When disease symptoms were fully expressed on the 1st leaves of untreated plants, infection levels were assessed on a scale of 0 to 100 percent disease severity. Percent disease control was calculated using the ratio of disease severity on treated plants relative to untreated plants. Example D: Evaluation of Fungicidal Activity: Apple Scab (Venturia inaequalis; Bayer code […]) Apple seedlings (variety McIntosh) were grown in soil-less Metro mix, with one plant per pot. Seedlings with two expanding young leaves at the top (older leaves at bottom of the plants were trimmed) were used in the test. Plants were inoculated with a spore suspension of Venturia inaequalis 24 h after fungicide treatment and kept in a 22° C. dew chamber with 100% relative humidity for 48 h, and then moved to a greenhouse set at 20° C. for disease to develop. Fungicide formulation, application and disease assessment on the sprayed leaves followed the procedures as described in the Example A."}, "Alternaria solani": {"test_system": "Alternaria solani", "assay": "Tomato Early Blight (ALTESO) fungicidal activity on tomato plants", "conditions": "24 h, 1 Day Protectant, read-out: ALTESO 1 DP disease control", "protocol": "Technical grades of materials were dissolved in acetone, which were then mixed with nine volumes of water (H2O) containing 110 ppm Triton X-100. The fungicide solutions were applied onto wheat seedlings using an automated booth sprayer to run-off. All sprayed plants were allowed to air dry prior to further handling. All fungicides were evaluated using the aforementioned method for their activity vs. all target diseases, unless stated otherwise. Wheat leaf blotch and brown rust activity were also evaluated using track spray applications, in which case the fungicides were formulated as EC formulations, containing 0.1% Trycol 5941 in the spray solutions. Wheat plants (variety Yuma) were grown from seed in a greenhouse in 50% mineral soil/50% soil-less Metro mix until the first leaf was fully emerged, with 7-10 seedlings per pot. These plants were inoculated with an aqueous spore suspension of Septoria tritici either prior to or after fungicide treatments. After inoculation the plants were kept in 100% relative humidity (one day in a dark dew chamber followed by two to three days in a lighted dew chamber at 20° C.) to permit spores to germinate and infect the leaf. The plants were then transferred to a greenhouse set at 20° C. for disease to develop. When disease symptoms were fully expressed on the 1st leaves of untreated plants, infection levels were assessed on a scale of 0 to 100 percent disease severity. Percent disease control was calculated using the ratio of disease severity on treated plants relative to untreated plants. Example I: Evaluation of Fungicidal Activity: Tomato Early Blight (Alternaria solani; Bayer code […]) Tomato plants (variety Outdoor Girl) were propagated in soil-less Metro mix, with each pot having one plant, and used when 12 to 14 days old. Test plants were inoculated with an aqueous spore suspension of Alternaria solani 24 h after fungicide treatments. After inoculation the plants were kept in 100% relative humidity (one day in a dark dew chamber followed by two to three days in a lighted dew chamber at 20° C.) to permit spores to germinate and infect the leaf. The plants were then transferred to a growth room at 22° C. for disease to develop. Fungicide formulation, application and disease assessment on the sprayed leaves followed the procedures as described in the Example A."}}, "data": [{"smiles": "COc1ccnc(C(=O)N[C@@H](C)C(=O)O[C@@H](C)C(c2ccccc2)c2ccccc2)c1OC(C)=O", "note": "[Cmpd 139, (S)-(S)-1,1-diphenylpropan-2-yl 2-(3-acetoxy-4-methoxypicolinamido)propanoate]", "values": [{"measurement": "pest or weed control at 100 ppm", "setting": "[1]", "value": "> 80", "unit": "%"}, {"measurement": "pest or weed control at 100 ppm", "setting": "Venturia inaequalis", "value": "> 80", "unit": "%"}, {"measurement": "pest or weed control at 100 ppm", "setting": "Alternaria solani", "value": "< 80", "unit": "%"}]}, {"smiles": "COc1ccnc(C(=O)N[C@@H](C)C(=O)O[C@@H](C)C(c2ccccc2)c2ccccc2)c1OC(=O)C(C)C", "note": "[Cmpd 140]", "values": [{"measurement": "pest or weed control at 100 ppm", "setting": "[1]", "value": "> 80", "unit": "%"}, {"measurement": "pest or weed control at 100 ppm", "setting": "Venturia inaequalis", "value": "> 80", "unit": "%"}, {"measurement": "pest or weed control at 100 ppm", "setting": "Alternaria solani", "value": "> 80", "unit": "%"}]}, {"smiles": "COc1ccnc(C(=O)N[C@@H](C)C(=O)O[C@@H](C)C(c2ccccc2)c2ccccc2)c1OCOC(C)=O", "note": "[Cmpd 141, (S)-(S)-1,1-diphenylpropan-2-yl 2-(3-(acetoxymethoxy)-4-methoxypicolinamido)propanoate]", "values": [{"measurement": "pest or weed control at 100 ppm", "setting": "[1]", "value": "> 80", "unit": "%"}, {"measurement": "pest or weed control at 100 ppm", "setting": "Venturia inaequalis", "value": "> 80", "unit": "%"}, {"measurement": "pest or weed control at 100 ppm", "setting": "Alternaria solani", "value": "< 80", "unit": "%"}]}, {"smiles": "COc1ccnc(C(=O)N[C@@H](C)C(=O)O[C@@H](C)C(c2ccccc2)c2ccccc2)c1OCOC(=O)C(C)C", "note": "[Cmpd 142, (S)-(S)-1,1-diphenylpropan-2-yl 2-(3-((isobutyryloxy)methoxy)-4-methoxypicolinamido)propanoate]", "values": [{"measurement": "pest or weed control at 100 ppm", "setting": "[1]", "value": "> 80", "unit": "%"}, {"measurement": "pest or weed control at 100 ppm", "setting": "Venturia inaequalis", "value": "> 80", "unit": "%"}, {"measurement": "pest or weed control at 100 ppm", "setting": "Alternaria solani", "value": "> 80", "unit": "%"}]}, {"smiles": "COc1ccnc(C(=O)N[C@@H](C)C(=O)O[C@@H](C)C(c2ccc(F)cc2)c2ccc(F)cc2)c1OC(C)=O", "note": "[Cmpd 145]", "values": [{"measurement": "pest or weed control at 100 ppm", "setting": "[1]", "value": "> 80", "unit": "%"}, {"measurement": "pest or weed control at 100 ppm", "setting": "Venturia inaequalis", "value": "> 80", "unit": "%"}, {"measurement": "pest or weed control at 100 ppm", "setting": "Alternaria solani", "value": "> 80", "unit": "%"}]}, {"smiles": "COc1ccnc(C(=O)N[C@@H](C)C(=O)O[C@@H](C)C(c2ccc(F)cc2)c2ccc(F)cc2)c1OCOC(C)=O", "note": "[Cmpd 146]", "values": [{"measurement": "pest or weed control at 100 ppm", "setting": "[1]", "value": "> 80", "unit": "%"}, {"measurement": "pest or weed control at 100 ppm", "setting": "Venturia inaequalis", "value": "> 80", "unit": "%"}, {"measurement": "pest or weed control at 100 ppm", "setting": "Alternaria solani", "value": "> 80", "unit": "%"}]}, {"smiles": "COc1ccnc(C(=O)N[C@@H](C)C(=O)O[C@@H](C)C(c2ccc(F)cc2F)c2ccc(F)cc2F)c1OCOC(C)=O", "note": "[Cmpd 148]", "values": [{"measurement": "pest or weed control at 100 ppm", "setting": "[1]", "value": "> 80", "unit": "%"}, {"measurement": "pest or weed control at 100 ppm", "setting": "Venturia inaequalis", "value": "> 80", "unit": "%"}, {"measurement": "pest or weed control at 100 ppm", "setting": "Alternaria solani", "value": "< 80", "unit": "%"}]}, {"smiles": "COc1ccnc(C(=O)N[C@@H](C)C(=O)O[C@@H](C)C(c2ccc(F)cc2F)c2ccc(F)cc2F)c1OC(C)=O", "note": "[Cmpd 150]", "values": [{"measurement": "pest or weed control at 100 ppm", "setting": "[1]", "value": "> 80", "unit": "%"}, {"measurement": "pest or weed control at 100 ppm", "setting": "Venturia inaequalis", "value": "> 80", "unit": "%"}, {"measurement": "pest or weed control at 100 ppm", "setting": "Alternaria solani", "value": "> 80", "unit": "%"}]}, {"smiles": "COc1ccnc(C(=O)N[C@@H](C)C(=O)O[C@@H](C)C(c2ccc(Cl)cc2)c2ccc(Cl)cc2)c1OC(C)=O", "note": "[Cmpd 174]", "values": [{"measurement": "pest or weed control at 100 ppm", "setting": "[1]", "value": "> 80", "unit": "%"}, {"measurement": "pest or weed control at 100 ppm", "setting": "Venturia inaequalis", "value": "< 80", "unit": "%"}, {"measurement": "pest or weed control at 100 ppm", "setting": "Alternaria solani", "value": "< 80", "unit": "%"}]}, {"smiles": "COc1ccnc(C(=O)N[C@@H](C)C(=O)O[C@@H](C)C(c2ccc(Cl)cc2)c2ccc(Cl)cc2)c1OCOC(C)=O", "note": "[Cmpd 176]", "values": [{"measurement": "pest or weed control at 100 ppm", "setting": "[1]", "value": "> 80", "unit": "%"}, {"measurement": "pest or weed control at 100 ppm", "setting": "Venturia inaequalis", "value": "> 80", "unit": "%"}, {"measurement": "pest or weed control at 100 ppm", "setting": "Alternaria solani", "value": "< 80", "unit": "%"}]}]}
